Counter-ions that a name gives are not always drawn. Like-named read-outs stand apart in the source and are kept apart here.
How the values were obtained:
δ receptor = molecular target: T1, δ receptor (Mus musculus, UniProt P32300); design: species or system male ddy mouse
T1 construct: The vas deferens extracted from the animal was suspended in a Magnus tube; from tissue; host or cells: mouse (male ddy) vas deferens

κ receptor = molecular target: T2, κ receptor (Mus musculus, UniProt P33534); test: Opioid activity test using an extracted mouse vas deferens preparation, Ke with norBNI; design: species or system male ddy mouse; settings: for receptor selectivity of agonist (κ): in words; for Ke, norBNI: κ, norBNI added
T2 construct: from tissue; host or cells: mouse (male ddy) vas deferens
T2 sequence (P33534 whole entry): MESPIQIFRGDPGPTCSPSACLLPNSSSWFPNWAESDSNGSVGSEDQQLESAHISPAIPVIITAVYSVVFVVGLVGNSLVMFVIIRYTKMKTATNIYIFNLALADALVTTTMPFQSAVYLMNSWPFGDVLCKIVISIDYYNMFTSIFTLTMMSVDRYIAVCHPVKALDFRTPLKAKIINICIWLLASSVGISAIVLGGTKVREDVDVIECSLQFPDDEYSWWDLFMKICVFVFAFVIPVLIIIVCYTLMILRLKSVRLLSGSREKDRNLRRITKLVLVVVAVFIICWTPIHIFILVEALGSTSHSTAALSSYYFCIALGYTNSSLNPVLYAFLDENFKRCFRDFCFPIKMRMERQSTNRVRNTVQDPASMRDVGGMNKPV
Procedure: (§1) A male ddy mouse was used in this test. The vas deferens extracted from the animal was suspended in a Magnus tube filled with Krebes-Henseleit solution (NaCl 118 mM; KCl 4.7 mM; CaCl2 2.5 mM; KH2 PO4 1.1 mM; NaHCO3 25 mM; Glucose 11 mM) warmed to 37° C. and ventilated with 5% carbon dioxide and 95% oxygen. Electrical stimulus was performed at 0.1 Hz for 5.0 ms by means of ring-shaped platinum electrodes located above and below. Tissue contractions were recorded on a polygraph using an isometric transducer.
(§2) After adequately washing with nutrient solution and the contraction reaction stabilized, the μ agonist, naloxone, the δ agonist, NTI, or the κ agonist, norBNI, was added after which the test compound was again cumulatively added after roughly 20 minutes. The Ke value was calculated using the following calculation formula from the difference in the efficacies of both agonists.
(§3) Ke=[Conc. of added agonist]/(IC50 ratio-1)
(§4) IC50 ratio=IC50 in the presence of agonist/IC50 in the absence of agonist

[1] = tested on: acetic acid-induced writhing in ddy mice; test: animal or person; format: in vivo, 5 week old ddy mice; settings: for ED50: s.c. 15 minutes before acetic acid
Procedure: 5 week old ddy mice were used in this test. After intraperitoneal administration of 0.1 ml of 0.6% aqueous acetic acid per 10 g of body weight, the number of writhing reactions that occurred in 10 minutes starting 10 minutes after administration was evaluated for the indicator. The test drug was administered subcutaneously into the backs of the animals 15 minutes before administration of acetic acid.

μ receptor = molecular target: T3, μ receptor (Mus musculus, UniProt P42866); test: Opioid activity test using an extracted mouse vas deferens preparation, Ke with naloxone; design: species or system male ddy mouse; settings: naloxone added
T3 construct: naloxone as mu antagonist (printed 'agonist')
T3 sequence (P42866 whole entry): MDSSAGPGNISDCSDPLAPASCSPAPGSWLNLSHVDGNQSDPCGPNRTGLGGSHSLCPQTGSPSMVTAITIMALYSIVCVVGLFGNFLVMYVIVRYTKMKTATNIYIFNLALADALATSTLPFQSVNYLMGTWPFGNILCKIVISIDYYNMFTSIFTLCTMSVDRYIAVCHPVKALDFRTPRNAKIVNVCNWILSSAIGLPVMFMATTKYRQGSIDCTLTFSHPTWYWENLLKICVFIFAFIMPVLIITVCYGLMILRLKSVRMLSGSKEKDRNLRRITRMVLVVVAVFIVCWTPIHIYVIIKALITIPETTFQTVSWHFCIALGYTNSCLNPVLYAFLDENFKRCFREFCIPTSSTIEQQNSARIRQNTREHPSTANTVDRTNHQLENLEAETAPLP
Procedure: as §1, §2, §3, §4

[2] = Diuretic action (urine output for 5 hours after physiological saline loading in rats); format: in vivo, male Wistar rats; settings: for ED (200% urine output) / ED (500% urine output): Rattus norvegicus, sc, 5 hours after saline 20 ml/kg p.o.; for ED (200% urine output): dose giving urine output of 200 (non-dosed group = 100); for ED (500% urine output): dose giving urine output of 500 (non-dosed group = 100); for Diuretic action (in words): s.c., from ED200 values
Procedure: 7-8 week old male Wistar rats were used in this test after prohibiting from drinking water for 1 hour before the start of testing. After discharging any urine accumulated in the bladder by gently stimulating the lower abdomens of the animals, the drug was administered subcutaneously. After 30 minutes, the animals were then forcibly given 20 ml/kg of physiological saline orally. The animals were placed in metabolic cages immediately after administration of the drug (2 animals/cage) and urine output for 5 hours after loading with physiological saline was measured. Drug efficacy was expressed in the form of those doses resulting in urine outputs of 200 and 500, respectively, when the urine output of a non-dosed group was taken to be 100. Those doses were expressed as the ED200 and ED500 values, respectively.

[3] = tested on: extracted mouse vas deferens preparation; test: Opioid activity test using an extracted mouse vas deferens preparation (suppression of electrically induced contractions); design: species or system male ddy mouse; settings: electrical stimulus 0.1 Hz, 37° C.
Procedure: as §1, §2

[4] = mouse vas deferens, δ, NTI added
[5] = Mus musculus, sc, read-out: ED50

T1 sequence (P32300 whole entry): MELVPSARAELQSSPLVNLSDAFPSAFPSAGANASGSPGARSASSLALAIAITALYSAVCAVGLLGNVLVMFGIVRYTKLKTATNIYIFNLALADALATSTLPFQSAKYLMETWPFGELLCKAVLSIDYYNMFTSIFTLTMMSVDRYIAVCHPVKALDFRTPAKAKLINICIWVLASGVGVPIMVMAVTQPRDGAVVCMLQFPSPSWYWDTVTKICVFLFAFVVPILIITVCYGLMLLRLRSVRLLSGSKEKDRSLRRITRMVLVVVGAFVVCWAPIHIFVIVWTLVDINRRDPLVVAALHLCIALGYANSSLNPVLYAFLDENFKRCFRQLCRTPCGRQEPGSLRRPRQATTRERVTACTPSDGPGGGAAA

Structure (SMILES) | Ke, NTI (δ receptor; [4]) | receptor selectivity of agonist (κ) (κ receptor) | Ke, norBNI (κ receptor) | ED50 [1, 5] | Ke, Naloxone (μ receptor) | ED (200% urine output) [2] | ED (500% urine output) [2] | Diuretic action (in words) [2] | IC50 [3] | receptor selectivity of agonist (δ) (δ receptor; mouse vas deferens, in words) | ED50 [1] | Ke, NTI (δ receptor) | analgesic activity ([1]; s.c., in words)
CN(C(=O)CCc1ccccc1)[C@H]1CC[C@@]2(O)[C@H]3Cc4ccc(O)c5c4[C@@]2(CCN3CC2CC2)[C@H]1O5 [Compound 22, 17-Cyclopropylmethyl-4,5α-epoxy-3,14β-dihydroxy-6α-(N-methyl-3-phenylpropionamido)morphinan.cndot.tartrate] | 545 nM | selective agonists for κ receptors | 5.53 nM | 5.1 µg/kg | 800 nM | 0.95 µg/kg | 17 µg/kg | extremely strong diuretic action | 1.2 nM |  |  |  | 
CN(C(=O)COc1ccccc1)[C@H]1CC[C@@]2(O)[C@H]3Cc4ccc(O)c5c4[C@@]2(CCN3CC2CC2)[C@H]1O5 [Compound 38, 17-cyclopropylmethyl-3,14β-dihydroxy-4,5α-epoxy-6α-(N-methylphenoxyacetamido)morphinan.cndot.hydrochloride] | 16.6 nM | selective agonists for κ receptors | 4.65 nM | 3.52 µg/kg | 411 nM | 3.8 µg/kg | 281 µg/kg |  | 0.349 nM |  |  |  | 
CCCCCC(=O)N(C)[C@H]1CC[C@@]2(O)[C@H]3Cc4ccc(O)c5c4[C@@]2(CCN3CC2CC2)[C@H]1O5 [Compound 39, 17-cyclopropylmethyl-3,14β-dihydroxy-4,5α-epoxy-6α-(N-methylhexanamido)morphinan.cndot.tartrate] | 99.3 nM | selective agonists for κ receptors | 1.01 nM | 8.8 µg/kg | 89.9 nM | 4.1 µg/kg | 228 µg/kg |  | 0.568 nM |  |  |  | 
CN(C(=O)/C=C/c1ccc(C(F)(F)F)cc1)[C@@H]1CC[C@@]2(O)[C@H]3Cc4ccc(O)c5c4[C@@]2(CCN3CC2CC2)[C@H]1O5 [Compound 73, 17-cyclopropylmethyl-3,14β-dihydroxy-4,5α-epoxy-6β-(N-methyl-4-trifluoromethylcinnamamido)morphinan.cndot.tartrate] | 78 nM | selective agonists for κ receptors | 0.272 nM | 23 µg/kg | 524 nM |  |  |  | 0.072 nM |  |  |  | 
C=CCN1CC[C@]23c4c5ccc(O)c4O[C@H]2[C@@H](N(C)C(=O)Cc2ccc(Cl)c(Cl)c2)CC[C@@]3(O)[C@H]1C5 [Compound 122, 17-allyl-3,14β-dihydroxy-4,5α-epoxy-6α-(N-methyl-3,4-dichlorophenylacetamido)morphinan.cndot.hydrochloride] | 42.7 nM | selective agonists for κ receptors | 0.358 nM | 340 µg/kg | 59.5 nM |  |  |  | 3.01 nM |  |  |  | 
CN(C(=O)C#Cc1ccc(C(F)(F)F)cc1)[C@H]1CC[C@@]2(O)[C@H]3Cc4ccc(O)c5c4[C@@]2(CCN3CC2CC2)[C@H]1O5 [Compound 126, 17-Cyclopropylmethyl-3,14β-dihydroxy-4,5α-epoxy-6α-[N-methyl-3-(4-trifluoromethylphenyl)propiolamido]morphinan.cndot.0.5 tartrate] | 0.0065 nM |  | 1.20 nM |  | 40.2 nM |  |  |  | 0.969 nM | selective agonists for δ receptors |  |  | 
CC(=O)Oc1ccc2c3c1O[C@H]1[C@H](N(C)C(=O)/C=C/c4ccccc4)CC[C@@]4(O)[C@@H](C2)N(CC2CC2)CC[C@]314 [Compound 140, 17-Cyclopropylmethyl-3-acetoxy-14β-hydroxy-4,5α-epoxy-6β-(N-methylcinnamamido)morphinan.cndot.tartrate] | 261 nM | selective agonists for κ receptors | 1.06 nM |  | 320 nM |  |  |  | 0.413 nM |  | 3.4 µg/kg |  | 
CN(C(=O)/C=C/c1cccc(Br)c1)[C@@H]1CC[C@@]2(O)[C@H]3Cc4ccc(O)c5c4[C@@]2(CCN3CC2CC2)[C@H]1O5 [Compound 151, 17-cyclopropylmethyl-3,14β-dihydroxy-4,5α-epoxy-6β-(N-methyl-3-bromocinnamamido)morphinan hydrobromide] |  | selective agonists for κ receptors | 0.028 nM | 4.1 µg/kg | 0.94 nM | 4.45 µg/kg | 1560 µg/kg |  |  |  |  | 1.65 nM | 
CN(C(=O)/C=C/c1ccc(Cl)cc1)[C@@H]1CC[C@@]2(O)[C@H]3Cc4ccc(O)c5c4[C@@]2(CCN3CC2CC2)[C@H]1O5 [Compound 152, 17-cyclopropylmethyl-3,14β-dihydroxy-4,5α-epoxy-6β-(N-methyl-4-chlorocinnamamido)morphinan hydrochloride] |  | selective agonists for κ receptors | 0.039 nM |  | 17.5 nM | 0.71 µg/kg | 9.53 µg/kg | extremely strong diuretic action |  |  | 3.8 µg/kg | 35.1 nM | 
CN(C(=O)/C=C/c1cccc(Cl)c1)[C@@H]1CC[C@@]2(O)[C@H]3Cc4ccc(O)c5c4[C@@]2(CCN3CC2CC2)[C@H]1O5 [Compound 154, 17-cyclopropylmethyl-3,14β-dihydroxy-4,5α-epoxy-6β-(N-methyl-3-chlorocinnamamido)morphinan hydrochloride] |  | selective agonists for κ receptors | 0.133 nM | 1 µg/kg | 43.1 nM | 2.14 µg/kg | 270 µg/kg |  |  |  |  | 31.5 nM | particularly strong analgesic activity
CC(C)CN(C(=O)/C=C/c1cccc(C(F)(F)F)c1)[C@@H]1CC[C@@]2(O)[C@H]3Cc4ccc(O)c5c4[C@@]2(CCN3CC2CC2)[C@H]1O5 [Compound 166, 17-cyclopropylmethyl-3,14β-dihydroxy-4,5α-epoxy-6β-(N-isobutyl-3-trifluoromethylcinnamamido)morphinan 0.5 tartrate] | 20.5 nM |  | 4.78 nM |  | 36.9 nM |  |  |  | 0.028 nM |  |  |  | 
Cc1cccc(C#CC(=O)N(C)[C@@H]2CC[C@@]3(O)[C@H]4Cc5ccc(O)c6c5[C@@]3(CCN4CC3CC3)[C@H]2O6)c1.Cl [Compound 172, 17-cyclopropylmethyl-3,14β-dihydroxy-4,5α-epoxy-6β-[N-methyl-3-(3-methylphenyl)propiolamido]morphinan hydrochloride] | 17.57 nM | selective agonists for κ receptors | 0.163 nM | 7.9 µg/kg | 16.16 nM | 3.23 µg/kg | 3030 µg/kg |  |  |  |  |  | 
